Tests used:
Type in all cases: cell-based, HIV-1
[1] = system: wild-type HXB2-D virus; assay: MT-4 cell CPE protection assay, wild-type control virus
Description: (§1) Mutations were created in HIV-1 RT by site-directed mutagenesis and the mutant RT was then transferred into the HXB2-D wild-type virus background. The specific mutations created in this background are indicated. The nucleoside susceptibility of mutant viruses (fold increase in IC50 value relative to wild-type HXB2-D virus control) was assessed as described in ‘Methods’.
(§2) MT-4 cells (Harada S., et al, Science 229: 563-566 (1985).) were co-transfected with pol gene PCR fragments and the protease-RT deleted HIV-1 molecular clone, pGEM3ΔPRT, as described. See Hertogs K., et al., Antimicrob. Agents Chemother. 42: 269-276 (1998). […] Phenotypic susceptibility to nucleoside analogues was determined using an MT-4 cell viral cytopathic effect (CPE) protection assay as described. Id. Fold resistance values were derived by dividing the mean IC50 for a patient's recombinant virus by the mean IC50 for wild-type control virus (strain HXB2-D).
(§3) Mutations in the RT coding region were created by site-directed mutagenesis of a wild-type HXB2-D EcoRI-PstI restriction enzyme fragment, encompassing the HIV-1 pol gene and cloned into pGEM3 (Promega). Single and multiple nucleotide changes were introduced into RT using the ExSite mutagenesis kit (Strategene). All mutant clones were verified by DNA sequence analysis of the entire RT. PCR fragments were prepared from the mutated clones and the altered RT coding regions were transferred into the HIV-1 HXB2-D genetic background by homologous recombination as described above. The susceptibility of these recombinant viruses to nucleoside analogues was subsequently determined by the MT-4 cell CPE protection assay. Id.

[2] = system: HXB2-D virus with RT 69S-[S-S], 210W, 215Y, 62V; assay: MT-4 cell CPE protection assay, site-directed mutant virus
Description: as §1, §2, §3

[3] = system: HXB2-D virus with RT 69S-[S-S], 210W, 215Y; assay: as above
Description: as §1, §2, §3

[4] = system: HXB2-D virus with RT 210W, 215Y, 62V; assay: as above
Description: as §1, §2, §3

[5] = system: HXB2-D virus with RT 69S-[S-S]; assay: as above
Description: as §1, §2, §3

[6] = system: HXB2-D virus with RT 210W, 215Y; assay: as above
Description: as §1, §2, §3

[7] = system: codon 151 cluster viruses
Description: (§4) FIG. 2: Nucleoside analogue susceptibility of MDR patient-derived recombinant HIV variants. Recombinant viruses were produced from patient plasma samples as described in Example 2 and tested for susceptibility to (a) d4T, (b) ddC and (c) ddI. […] Error bars indicate standard errors. Note that the total number (n=310) is higher than the 302 MDR samples described because a small minority were 69D/N and 75M double mutants and are represented in both groups.
as §2
(§5) From this analysis, 302 samples were identified with four-fold or greater increases in IC50 (relative to a wild-type control virus) to at least four of these inhibitors. Thus, a substantial number of MDR viruses were present in the sample population.
(§6) Genotypic analysis was performed on all 892 samples by dideoxy-nucleotide sequencing. […] A comparison of the incidence of specific RT mutations in MDR samples versus non-MDR in the population surveyed is shown in FIG. 1. This analysis highlighted the incidence of the codon 151 mutational cluster in the MDR group. In addition, a novel family of amino acid insertions and rearrangements between codons 67 and 70 were also prevalent in the MDR group. These two patterns of mutations were correlated with high-level phenotypic multi-nucleoside resistance (FIG. 2), 27 samples having the codon 151 cluster and 45 samples having insertions and rearrangements (typically a T69S substitution, followed by insertion of two amino acids).

[8] = system: codon 69 insertion mutants
Description: as §4, §2, §5, §6

[9] = system: samples with AZT and 3TC resistance mutations plus T69A/N or V175M; assay: Recombinant virus assay, MDR patient-derived recombinant HIV variants
Description: as §4, §2, §5
Genotypic analysis was performed on all 892 samples by dideoxy-nucleotide sequencing. […]

[10] = system: HXB2-D virus with T69A or V75M in a background of AZT mutations; assay: MT-4 cell CPE protection assay, site-directed mutant viruses
Description: as §2, §3
To investigate the significance of the observed mutational patterns correlated with MDR virus we constructed a series of viruses by site-directed mutagenesis with specific changes in a defined genetic background (HXB2-D). […] In addition, the potential role of A62V, a substitution also frequently correlated with the insertions was investigated by adding this mutation to a background of 69S-[S-S] plus 210W/215Y.

[11] = system: variants with the 69S-[S-S] insert plus AZT resistance mutations; assay: MT-4 cell CPE protection assay, site-directed mutant viruses (group statement)
Description: as §2
as §3, with “Id. […]” for “Id.”

[12] = system: mutants carrying mutation 184V; assay: Drug susceptibility assay, site-directed mutants (group statement); settings: high resistance caused by mutation 184V
Description: Phenotypic analysis was performed using the recombinant virus assay. See Kellam, P., and B. A. Larder. Antimicrob Agents Chemother 38:23-30 (1994); Hertogs, K., et al., Agents Chemother. 42:269-276 (1998); Pauwels, R., et al., Abstracts of the 2nd International Workshop on HIV Drug Resistance and Treatment Strategies, Abstr. 51. Lake Maggiore, Italy (1998). Briefly, protease (PR) and reverse transcriptase (RT) coding sequences were amplified from patient-derived viral RNA with HIV-1 specific primers. After homologous recombination of amplicons into a PR-RT deleted proviral clone, the resulting recombinant viruses were harvested, titrated and used for in vitro susceptibility testing to antiretroviral drugs. The results of this analysis were expressed as fold-resistance values, reflecting the fold-increase in mean IC50 (μM) of a particular drug when tested with patient-derived recombinant virus isolates, relative to the mean IC50 (μM) of the same drug obtained when tested with a reference wild-type virus isolate (IIIB/LAI).
For the modeling studies, mutations were generated in the RT gene of HXB2, a wild-type laboratory HIV-1 strain, using the QuikChange^J Site-Directed Mutagenesis Kit, Stratagene^7, Stratagene Cloning systems, La Jolla, Calif., USA.
Two of them carried both 44D/A and 181I, while all but one (SDM23) carried ZDV resistance-correlated mutations. […]

[13] = Human immunodeficiency virus 1, MT4, mean values

Row | Structure (SMILES) | IC50 [1, 13] | Fold increase in IC50 ([2]; {}) | Fold increase in IC50 ([3]; {}) | Fold increase in IC50 ([4]; {}) | Fold increase in IC50 ([5]; {}) | Fold increase in IC50 ([6]; {}) | mean fold increase in IC50 (resistance) [7] | mean fold increase in IC50 (resistance) [8] | level of resistance [9] | resistance conferred [10] | susceptibility [11] | resistance (fold) [12] | IC50 ([1]; mean values) | Fold increase in IC50 ([2]; mutant genotype 69S-[S-S], 210W, 215Y, 62V, relative to wild-type HXB2-D, mean of two determinations) | Fold increase in IC50 ([3]; mutant genotype 69S-[S-S], 210W, 215Y, relative to wild-type HXB2-D, mean of two determinations) | Fold increase in IC50 ([4]; mutant genotype 210W, 215Y, 62V, relative to wild-type HXB2-D, mean of two determinations) | Fold increase in IC50 ([5]; mutant genotype 69S-[S-S], relative to wild-type HXB2-D, mean of two determinations) | Fold increase in IC50 ([6]; mutant genotype 210W, 215Y, relative to wild-type HXB2-D, mean of two determinations)
1 | Cc1cn([C@H]2C=C[C@@H](CO)O2)c(=O)[nH]c1=O [d4T, stavudine] | 2390 nM | 5.2 fold | 4.8 fold | 0.7 fold | 2.3 fold | 1.1 fold | > 10 fold | > 10 fold | modest levels of resistance | little or no resistance | – | – | – | – | – | – | – | –
2 | O=c1[nH]cnc2c1ncn2[C@H]1CC[C@@H](CO)O1 [ddI, didanosine] | 4600 nM | 1.8 fold | 2.1 fold | 0.5 fold | 1.7 fold | 1.2 fold | – | – | – | little or no resistance | – | – | – | – | – | – | – | –
3 | Cc1cn([C@H]2C[C@H](N=[N+]=[N-])[C@@H](CO)O2)c(=O)[nH]c1=O [AZT, zidovudine] | – | – | – | – | – | – | – | – | – | – | decreased susceptibility | – | – | – | – | – | – | –
4 | Nc1ccn([C@@H]2CS[C@H](CO)O2)c(=O)n1 [3TC, lamivudine] | 1670 nM | 15 fold | 20 fold | 1.3 fold | 6.2 fold | 3.8 fold | – | – | – | – | – | > 62 fold | – | – | – | – | – | –
5 | Nc1ccn([C@H]2CC[C@@H](CO)O2)c(=O)n1 [ddC, zalcitabine] | 1410 nM | 2.7 fold | 4.2 fold | 0.8 fold | 2.1 fold | 1.2 fold | > 10 fold | > 10 fold | modest levels of resistance | little or no resistance | – | – | – | – | – | – | – | –
6 | Nc1nc(NC2CC2)c2ncn(C3C=CC(CO)C3)c2n1 (stereo not drawn) [compound 1592, 4-[(2-amino-6-cyclopropyl-amino)-9H-purin-9-yl]-2-cyclopentene-1-methanol] | – | – | – | – | – | – | – | – | – | – | decreased susceptibility | – | 2900 nM | 5.4 fold | 4.6 fold | 0.7 fold | 2.6 fold | 1.5 fold
